System: library of 8,380 IKZF3 degrons (ZF-eGFP/mCherry reporter) in Jurkat cells
Assay: Pooled library screen (FACS, NGS, limma voom LogFC of positive vs negative read counts)
Assay type: cell-based, human
Experimental: A library of 8,380 IKZF3 degrons was cloned into pLVX-Sprout to create the eGFP/mCherry protein degradation reporter plasmid pool. A lentivirus pool was then generated using the Lenti-X lentiviral vector production method.
Jurkat cells were transduced at a multiplicity of infection of <0.3 with the lentivirus vector library in order to maximise the number of cells with a single integration. Transductions were carried out in 6 well TC-treated cell culture dishes (Falcon) with 3×10^6 cells per well. Cells were incubated for 2 days at 37° C. and 5% CO2 before the supernatant was removed and replaced with fresh media. 6 days post-transduction, mCherry+ cells were isolated via FACS using the FACS Aria Fusion (BD) in a buffer containing PBS (Gibco), 2 mM EDTA (Gibco), 25 mM HEPES (Sigma) and 1% BSA (Sigma). 8 days later, cells were treated with DMSO or a thalidomide analog for 18 hours at 37° C. and 5% CO2. mCherry+GFPlow and NOT(mCherry+GFPlow) cells were sorted by FACS using the FACS Aria Fusion (BD). DMSO treated cells were used to set the mCherry+GFPlow gate and dead cells were excluded from sorting by staining cells with 1 μg/mL DAPI (ThermoFisher). gDNA was isolated using the Maxwell RSC 48 (Promega). gDNA from cells that were unsorted and untreated were also isolated to determine the library representation on the day of compound treatment. Throughout the screen >600× coverage of the library was maintained. 3 biological replicates were carried out with a new transduction taking place each time.
A two-step PCR was used where the first PCR (PCR1) amplified the integrated degron sequence from gDNA and the second PCR (PCR2) added Illumina adaptors and barcodes to permit multiplexing. See Supp F for PCR1 and PCR2 primers. Q5 Hot Start High-Fidelity 2× Master Mix (New England Biolabs) was used for both PCRs. Sufficient gDNA was amplified in PCR1 in order to maintain >600× coverage and amplicons were purified using solid phase reversible immobilization (SPRI) beads (Beckman Coulter). Purified PCR1 products were analysed on the Tapestation 4200 (Agilent) to confirm purity prior to proceeding to PCR2. Sufficient PCR1 product was amplified in PCR2 in order to maintain >600× coverage and amplicons were run on a 2% agarose TAE gel. Target bands were excised and purified using the NucleoSpin Gel and PCR Clean-up Kit (Machery Nagel). Amplicons were analysed on the Tapestation 4200 and quantified using Qubit dsDNA HS kit (ThermoFisher). PCR products were pooled and sequenced as paired-reads on the NovaSeq (Illumina) using a SP2 200 cycles kit (Illumina).
Count distributions, percentage of read mapping, library coverage and replicate correlation per sample were assessed for QC purposes.
To carry out the library screen, we used the same plasmid construct as in our earlier flow cytometry assays, but pooling all 8,380 mutants together into one Jurkat population, ensuring a copy number of one plasmid per cell (FIG. 4B). […] These GFP-negative cells were then separated from the remaining GFP-positive population using fluorescence activated cell sorting (FACS). These two populations were then sequenced and the relative abundance of every mutant in both populations compared to provide a log FC value for each mutant sequence. This value indicated how frequently a sequence is observed in the GFP-negative population relative to the GFP-positive population, and therefore how effective a degron it is for that particular IMID compound.

`O=C1CCC(N2C(=O)c3ccc(N4CCOCC4)cc3C2=O)C(=O)N1` (centres unmarked) [B03] showed a B03_logFC (Degron-ID 4175, SEQ ID NO 3945, 46F_47W_49E_50Q_52G_53A_54S_55F_67L) of 2.767, a B03_logFC (Degron-ID 4189, SEQ ID NO 3997, 46F_47W_49E_50V_52G_53A_54L_55F_67L) of 2.69 and a B03_logFC (Degron-ID 4212, SEQ ID NO 4019, 46F_47W_49N_50I_52G_53A_54P_55F_67L) of 2.659. The B03_logFC (Degron-ID 4216, SEQ ID NO 3948, 46F_47W_49N_50I_52G_53A_54T_55F_67L) was 2.757, the B03_logFC (Degron-ID 4217, SEQ ID NO 3953, 46F_47W_49N_50I_52G_53A_54V_55F_67L) was 2.75 and the B03_logFC (Degron-ID 4265, SEQ ID NO 3969, 46F_47W_49P_50I_52G_53A_54G_55F_67L) was 2.729. It also gave a B03_logFC (Degron-ID 4267, SEQ ID NO 4028, 46F_47W_49P_50I_52G_53A_54I_55F_67L) of 2.643, a B03_logFC (Degron-ID 4270, SEQ ID NO 3946, 46F_47W_49P_50I_52G_53A_54M_55F_67L) of 2.765 and a B03_logFC (Degron-ID 4279, SEQ ID NO 3996, 46F_47W_49P_50I_52G_53A_54Y_55F_67L) of 2.691. It also gave a B03_logFC (Degron-ID 4307, SEQ ID NO 3975, 46F_47W_49P_50V_52G_53A_54I_55F_67L) of 2.72, a B03_logFC (Degron-ID 4366, SEQ ID NO 3950, 46F_47Y_49D_50V_52G_53A_54H_55F_67L) of 2.757 and a B03_logFC (Degron-ID 4368, SEQ ID NO 4018, 46F_47Y_49D_50V_52G_53A_54K_55F_67L) of 2.66. It also gave a B03_logFC (Degron-ID 4456, SEQ ID NO 4010, 46F_47Y_49N_50I_52G_53A_54T_55F_67L) of 2.672, a B03_logFC (Degron-ID 4503, SEQ ID NO 4007, 46F_47Y_49P_50I_52G_53A_54E_55F_67L) of 2.675 and a B03_logFC (Degron-ID 4510, SEQ ID NO 3967, 46F_47Y_49P_50I_52G_53A_54M_55F_67L) of 2.732. The B03_logFC (Degron-ID 4544, SEQ ID NO 4004, 46F_47Y_49P_50V_52G_53A_54F_55F_67L) was 2.679, the B03_logFC (Degron-ID 4559, SEQ ID NO 4033, 46F_47Y_49P_50V_52G_53A_54Y_55F_67L) was 2.636 and the B03_logFC (Degron-ID 6474, SEQ ID NO 3991, 46L_47A_49P_50I_52G_53F_54R_55C_67L) was 2.7. The B03_logFC (Degron-ID 6480, SEQ ID NO 4002, 46L_47C_49P_50I_52G_53F_54A_55C_67L) was 2.685, the B03_logFC (Degron-ID 6494, SEQ ID NO 4012, 46L_47C_49P_50I_52G_53F_54R_55C_67L) was 2.668 and the B03_logFC (Degron-ID 6496, SEQ ID NO 3983, 46L_47C_49P_50I_52G_53F_54T_55C_67L) was 2.713. For the same molecule, the B03_logFC (Degron-ID 6544, SEQ ID NO 3994, 46L_47F_49P_50I_52G_53F_54F_55C_67L) was 2.694, the B03_logFC (Degron-ID 6545, SEQ ID NO 3958, 46L_47F_49P_50I_52G_53F_54G_55C_67L) was 2.743 and the B03_logFC (Degron-ID 6547, SEQ ID NO 3973, 46L_47F_49P_50I_52G_53F_54I_55C_67L) was 2.724. The B03_logFC (Degron-ID 6559, SEQ ID NO 3972, 46L_47F_49P_50I_52G_53F_54Y_55C_67L) was 2.725, the B03_logFC (Degron-ID 6579, SEQ ID NO 3987, 46L_47G_49P_50I_52G_53F_54Y_55C_67L) was 2.704 and the B03_logFC (Degron-ID 6581, SEQ ID NO 3985, 46L_47H_49P_50I_52G_53F_54C_55C_67L) was 2.71. It also gave a B03_logFC (Degron-ID 6593, SEQ ID NO 4008, 46L_47H_49P_50I_52G_53F_54Q_55C_67L) of 2.674, a B03_logFC (Degron-ID 6600, SEQ ID NO 3995, 46L_47I_49P_50I_52G_53F_54A_55C_67L) of 2.692 and a B03_logFC (Degron-ID 6715, SEQ ID NO 3949, 46L_47Q_49P_50I_52G_53F_54S_55C_67L) of 2.757. It also gave a B03_logFC (Degron-ID 6759, SEQ ID NO 4005, 46L_47S_49P_50I_52G_53F_54Y_55C_67L) of 2.677, a B03_logFC (Degron-ID 6761, SEQ ID NO 4009, 46L_47T_49P_50I_52G_53F_54C_55C_67L) of 2.672 and a B03_logFC (Degron-ID 6793, SEQ ID NO 3980, 46L_47V_49P_50I_52G_53F_54Q_55C_67L) of 2.717. For the same molecule, the B03_logFC (Degron-ID 6803, SEQ ID NO 4032, 46L_47W_49P_50I_52G_53F_54E_55C_67L) was 2.637, the B03_logFC (Degron-ID 6807, SEQ ID NO 3992, 46L_47W_49P_50I_52G_53F_54I_55C_67L) was 2.695 and the B03_logFC (Degron-ID 7568, SEQ ID NO 3954, 46F_47W_49E_50I_52G_53R_54K_55F_67L) was 2.75. It also gave a B03_logFC (Degron-ID 7574, SEQ ID NO 3993, 46F_47W_49E_50I_52G_53R_54R_55F_67L) of 2.695, a B03_logFC (Degron-ID 7699, SEQ ID NO 3976, 46L_47F_49E_50I_52G_53F_54Y_55C_67L) of 2.72 and a B03_logFC (Degron-ID 7894, SEQ ID NO 3947, 46L_47S_49E_50I_52G_53F_54R_55C_67L) of 2.76. It also gave a B03_logFC (Degron-ID 7920, SEQ ID NO 3990, 46L_47V_49E_50I_52G_53F_54A_55C_67L) of 2.702, a B03_logFC (Degron-ID 7971, SEQ ID NO 3955, 46L_47Y_49E_50I_52G_53F_54N_55C_67L) of 2.749 and a B03_logFC (degron 1074 (SEQ ID NO 3496) 46F_47F_49E_50V_52G_53A_54R_55F_67L) of 3.71. For the same molecule, the B03_logFC (degron 4088 (SEQ ID NO 3502) 46F_47W_49D_50I_52G_53A_54K_55F_67L) was 3.696, the B03_logFC (degron 4091 (SEQ ID NO 3497) 46F_47W_49D_50I_52G_53A_54N_55F_67L) was 3.708 and the B03_logFC (degron 4395 (SEQ ID NO 3500) 46F_47Y_49E_50I_52G_53A_54S_55F_67L) was 3.7. For the same molecule, the B03_logFC (degron 4420 (SEQ ID NO 3499) 46F_47Y_49E_50V_52G_53A_54A_55F_67L) was 3.704, the B03_logFC (degron 4551 (SEQ ID NO 3503) 46F_47Y_49P_50V_52G_53A_54N_55F_67L) was 3.692 and the B03_logFC (degron 6814 (SEQ ID NO 3498) 46L_47W_49P_50I_52G_53F_54R_55C_67L) was 3.704. It also gave a B03_logFC (degron 7973 (SEQ ID NO 3495) 46L_47Y_49E_50I_52G_53F_54Q_55C_67L) of 3.711 and a B03_logFC (degron 7975 (SEQ ID NO 3501) 46L_47Y_49E_50I_52G_53F_54S_55C_67L) of 3.698.

Reference: patent US20260284208A1, “SYSTEM” (Oxford University Innovation Limited, priority 2023, published 2026)
